Columns and labels:
[1] = target: T1, NADP-dependent malic enzyme (Homo sapiens, UniProt P48163); assay: (§1) Inhibition of His-tagged human recombinant full length ME1 using L-malate and beta-NADP+ as substrate preincubated with enzyme for 5 mins followed by beta-NADP+ challenge and incubated under shaking for 5 mins followed by incubation for 2 hrs without shaking by resorufin dye based fluorescence analysis
T1 sequence (P48163 whole entry): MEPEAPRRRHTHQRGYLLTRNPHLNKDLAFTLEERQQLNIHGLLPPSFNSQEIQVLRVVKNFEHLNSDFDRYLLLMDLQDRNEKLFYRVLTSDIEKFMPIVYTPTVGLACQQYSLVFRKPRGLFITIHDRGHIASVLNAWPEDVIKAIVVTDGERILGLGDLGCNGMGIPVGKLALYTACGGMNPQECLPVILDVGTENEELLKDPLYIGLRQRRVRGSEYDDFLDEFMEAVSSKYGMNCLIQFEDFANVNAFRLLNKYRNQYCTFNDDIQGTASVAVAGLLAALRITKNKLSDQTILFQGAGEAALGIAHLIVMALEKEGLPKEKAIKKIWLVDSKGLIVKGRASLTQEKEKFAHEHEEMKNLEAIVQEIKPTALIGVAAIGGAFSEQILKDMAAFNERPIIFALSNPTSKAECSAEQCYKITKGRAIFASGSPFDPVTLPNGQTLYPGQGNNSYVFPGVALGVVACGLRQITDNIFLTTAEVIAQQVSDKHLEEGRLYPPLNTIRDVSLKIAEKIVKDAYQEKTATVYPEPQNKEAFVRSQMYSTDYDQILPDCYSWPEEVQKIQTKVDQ

[2] = test system: BXPC-3; assay: cells; details: Homo sapiens, BXPC-3, 72 h, read-out: INH
Description: Antiproliferative activity against SMAD4/ME2-null human BXPC-3 cells assessed as inhibition of cell growth at 10 uM incubated for 72 hrs by CellTiter-Glo luminescence assay

[3] = target: NAD-dependent malic enzyme, mitochondrial (Homo sapiens, UniProt P23368); assay: as §1, with “ME2” for “ME1”, “beta-NAD+” for “beta-NADP+”
Chain of NAD-dependent malic enzyme, mitochondrial (P23368 whole entry): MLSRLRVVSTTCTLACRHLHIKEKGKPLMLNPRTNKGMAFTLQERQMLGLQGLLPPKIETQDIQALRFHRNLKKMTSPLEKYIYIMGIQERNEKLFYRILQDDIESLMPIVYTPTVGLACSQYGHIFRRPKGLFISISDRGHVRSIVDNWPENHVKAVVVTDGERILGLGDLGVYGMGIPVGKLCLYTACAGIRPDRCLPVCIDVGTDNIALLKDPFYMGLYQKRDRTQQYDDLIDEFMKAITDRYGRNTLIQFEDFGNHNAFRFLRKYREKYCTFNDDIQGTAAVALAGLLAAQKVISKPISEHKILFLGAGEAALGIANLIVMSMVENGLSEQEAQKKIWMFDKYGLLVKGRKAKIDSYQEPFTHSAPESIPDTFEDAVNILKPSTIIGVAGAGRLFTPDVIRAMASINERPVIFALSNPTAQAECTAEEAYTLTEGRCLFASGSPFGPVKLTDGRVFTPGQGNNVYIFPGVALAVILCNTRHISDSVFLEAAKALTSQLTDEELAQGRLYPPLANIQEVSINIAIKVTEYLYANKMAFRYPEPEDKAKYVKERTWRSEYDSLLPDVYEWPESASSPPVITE

[4] = Selectivity for SMAD4/ME2-null human BXPC-3 cells over human HCE-T cells
[5] = target: T2, NADP-dependent malic enzyme, mitochondrial (Homo sapiens, UniProt Q16798)
T2 sequence (Q16798 whole entry): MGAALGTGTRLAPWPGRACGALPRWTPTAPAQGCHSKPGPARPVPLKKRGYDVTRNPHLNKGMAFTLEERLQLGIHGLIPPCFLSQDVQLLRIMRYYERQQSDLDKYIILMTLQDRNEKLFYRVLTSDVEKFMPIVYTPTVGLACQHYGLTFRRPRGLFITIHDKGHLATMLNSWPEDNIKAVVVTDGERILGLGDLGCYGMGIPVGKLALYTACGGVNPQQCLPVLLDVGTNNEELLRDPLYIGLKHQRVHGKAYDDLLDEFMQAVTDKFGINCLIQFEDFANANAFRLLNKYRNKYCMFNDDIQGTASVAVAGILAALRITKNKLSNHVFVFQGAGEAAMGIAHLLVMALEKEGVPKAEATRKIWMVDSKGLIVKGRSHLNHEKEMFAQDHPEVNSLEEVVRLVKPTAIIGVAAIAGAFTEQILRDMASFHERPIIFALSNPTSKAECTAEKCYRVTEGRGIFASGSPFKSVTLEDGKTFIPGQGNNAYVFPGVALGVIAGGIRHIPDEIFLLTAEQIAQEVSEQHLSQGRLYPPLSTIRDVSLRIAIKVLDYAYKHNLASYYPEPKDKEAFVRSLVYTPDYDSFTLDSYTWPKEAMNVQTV
Description: (§2) Inhibition of His-tagged human recombinant ME3 (26 to 604 residues) using L-malate and beta-NADP+ as substrate preincubated with enzyme for 5 mins followed by beta-NADP+ challenge and incubated under shaking for 5 mins followed by incubation for 3 hrs without shaking by resorufin dye based fluorescence analysis

[6] = test system: BXPC-3; assay: cells; details: Homo sapiens, BXPC-3, 72 h
Description: Antiproliferative activity against SMAD4/ME2-null human BXPC-3 cells assessed as inhibition of cell growth incubated for 72 hrs by CellTiter-Glo luminescence assay

[7] = Cytotoxicity against human HCE-T cells assessed as inhibition of cell growth; type: toxicity, cell-based
[8] = target: T2, NADP-dependent malic enzyme, mitochondrial; remark: listed apart in the source
Description: as §2

[9] = test system: HUVEC; assay: Cytotoxicity against human HUVEC cells assessed as inhibition of cell growth; type: toxicity, cell-based
[10] = target: T3, NADP-dependent malic enzyme, mitochondrial (Homo sapiens) (UniProt Q16798); details: dose 0.1 µM, time 190.0 min
T3 sequence (whole entry): T2 sequence (Q16798 whole entry)

[11] = test system: BXPC-3; assay: Antiproliferative activity against SMAD4/ME2-null human BXPC-3 cells assessed as inhibition of cell growth at 1 uM incubated for 72 hrs by CellTiter-Glo luminescence assay; type: functional

SMILES	IC50 ([1]; read-out: IC50)	inhibition at 10 µM [2]	IC50 ([3]; read-out: IC50)	Selectivity ratio [4]	IC50 [5]	IC50 [6]	IC50 [7]	IC50 [1]	IC50 [8]	IC50 [3]	Activity [9]	inhibition [10]	inhibition at 1 µM [11]
O=C(CCc1cccs1)N1CCN(c2ccc(O)cn2)CC1	1320 nM	76%	1290 nM	5	160 nM	4600 nM	25000 nM						
O=C(/C=C/c1ccccc1)N1CCN(c2ccc(O)cc2)CC1	170 nM	29%	230 nM	5	80 nM								
O=C(Cc1ccccc1)N1CCN(c2ccc(O)nc2)CC1								Not Active	Not Active	Not Active			
O=C1CC(N2CCN(c3ccc(O)cc3)CC2)C(=O)N1c1ccccc1 (stereo not given)	220 nM	0%	200 nM	5	150 nM								
COc1ccc(CCC(=O)N2CCN(c3ccc(O)cn3)CC2)cc1	1900 nM	13%	2500 nM	5	470 nM								
CC(C)(CC(=O)N1CCN(c2ccc(O)cc2)CC1)c1ccccc1	150 nM	85%	270 nM	5	120 nM	5200 nM	> 30000 nM				Non-Toxic		
CCCCOc1ccc(CCC(=O)N2CCN(c3ccc(O)cc3)CC2)cc1	420 nM	29%	350 nM	5	60 nM								
CC(C)CN1CCN(c2ccc(O)cn2)CC1		6%										0%	0%
O=C(O)c1cc2ccccc2c(Cc2cc3ccccc3c(C(=O)O)c2O)c1O	10300 nM		2800 nM		5600 nM								
COCCOc1ccc(CCC(=O)N2CCN(c3ccc(O)cn3)CC2)cc1	3500 nM	3%	2600 nM	5	580 nM								
O=C(CCc1ccccc1)N1CCN(c2ccc(F)cn2)CC1		0%				> 30000 nM							
O=C(Cc1ccccc1)N1CCN(c2ccc(O)cc2)CC1	180 nM	80%	190 nM	5	100 nM	6000 nM							
O=C(CCc1ccccc1)N1CCN(c2ncc(O)cn2)CC1								Not Active	Not Active	Not Active			
CC(C)(CC(=O)N1CCN(c2ccc(O)cn2)CC1)c1ccc(F)cc1	1300 nM	100%	1110 nM	5	310 nM	5900 nM	> 30000 nM						
O=C(COc1ccccc1)N1CCN(c2ccc(O)cc2)CC1	630 nM	55%	390 nM	5	130 nM								
Oc1ccc(N2CCN(CC3CC3)CC2)nc1		0%										0%	0%
O=C(Cc1ccccc1)N1CCN(c2ccc(O)cn2)CC1	1600 nM		980 nM		200 nM								
O=C(CN1CCN(c2ccc(O)cc2)CC1)Nc1ccccc1	340 nM	18%	360 nM	5	110 nM								
O=C(CCc1ccccc1)N1CCN(c2ccc(O)cc2)CC1	270 nM	93%	270 nM	5	100 nM	3600 nM	> 30000 nM						
